Test results published in ChEMBL document CHEMBL1212919, “An efficient approach to the discovery of potent inhibitors against glycosyltransferases” (J Med Chem, 2010).

How the values were obtained:
[1] = Inhibition of alpha-(1,3)-fucosyltransferase after 60 mins by Lineweaver-Burke plot analysis
[2] = biological target: T1, CMP-N-acetylneuraminate-beta-1,4-galactoside alpha-2,3-sialyltransferase (Rattus norvegicus, UniProt Q02734); assay: Inhibition of rat recombinant alpha 2,3-(N)-sialyltransferase 3
T1 sequence (Q02734 whole entry): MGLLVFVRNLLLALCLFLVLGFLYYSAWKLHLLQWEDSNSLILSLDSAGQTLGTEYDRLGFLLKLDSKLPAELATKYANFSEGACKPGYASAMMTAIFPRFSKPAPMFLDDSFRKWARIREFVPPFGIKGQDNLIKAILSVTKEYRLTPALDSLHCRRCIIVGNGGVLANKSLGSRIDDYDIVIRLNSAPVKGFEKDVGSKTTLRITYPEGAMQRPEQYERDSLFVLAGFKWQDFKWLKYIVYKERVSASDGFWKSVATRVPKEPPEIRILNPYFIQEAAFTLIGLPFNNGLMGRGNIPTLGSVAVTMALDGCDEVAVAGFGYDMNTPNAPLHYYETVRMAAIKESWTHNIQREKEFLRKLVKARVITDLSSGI

[3] = species on record: Rattus norvegicus
[4] = Inhibition of alpha-(1,6)-fucosyltransferase after 60 mins by Lineweaver-Burke plot analysis

## C[C@]12CC[C@@H]3c4ccc(O)cc4CC[C@H]3[C@@H]1CC[C@@]2(O)c1cn(C[C@@H]2O[C@H](OP(=O)(O)OP(=O)(O)OC[C@H]3O[C@@H](n4cnc5c(=O)[nH]c(N)nc54)[C@H](O)[C@@H]3O)[C@@H](O)[C@H](O)[C@@H]2O)nn1
[1]
  Ki: 293 nM

## C[C@]12CC[C@@H]3c4ccc(O)cc4CC[C@H]3[C@@H]1CC[C@@]2(O)c1cn(CC(=O)N[C@H]2[C@H]([C@H](O)[C@H](O)CO)O[C@](OP(=O)(O)OC[C@H]3O[C@@H](n4ccc(N)nc4=O)[C@H](O)[C@@H]3O)(C(=O)O)C[C@@H]2O)nn1
[2]
  IC50: 8.2 µM
[3]
  Km: 125 µM

## CCCCCc1ccc(-c2cn(C[C@@H]3O[C@H](OP(=O)(O)OP(=O)(O)OC[C@H]4O[C@@H](n5cnc6c(=O)[nH]c(N)nc65)[C@H](O)[C@@H]4O)[C@@H](O)[C@H](O)[C@@H]3O)nn2)cc1
[4]
  Ki: 13.8 µM
